According to patent US10370328B2, “Oxindole compounds and pharmaceutical compositions thereof” (MUSC FOUNDATION FOR RESEARCH DEVELOPMENT, priority 2015, dated 2019):

Columns and labels:
[1] = test system: 661W or C6 cells; assay: Metabolic Protection Assay (MTT), protection from calcium-ionophore A23187; assay type: cell-based; details: 1 μM ionophore, 24 h
Protocol: The compound 3-(4,5-Dimethylthiazol-2-yl)-2,5-diphenyltetrazolium bromide (MTT) is a tetrazolium ion that is reduced to a blue formazan dye via several families of NAD(P)H-dependent oxidoreductases. Formation of the formazan dye from MTT or other related tetrazolium dyes are commonly used as a viability assay even though, in fact, the assay is a metabolic capacity assay.
In this assay, 661W or C6 cells were maintained in DMEM supplemented with 10% serum. 100 of 70,000 cells/mL cells were seeded into each well of 96 well plates using DMEM supplemented with 5% serum. Cells were then allowed to grow to confluency for 48 hours. Representative compounds of the invention were added in 2 μL media and calcium-ionophore A23187 was then added in 1 μL for a final concentration of 1 μM and after 24 h, 20 uL of […] MTT were added to each well and the cells were incubated for another 4 h after which 100 μL of 1% SDS in 0.01 M aqueous HCl were added to each well and the plates were incubated overnight. Absorbance was measured at […] (background correction). The 1 μM ionophore A23187 caused about 50% loss in MTT signal at 24 h. Protection was calculated as the increase in absorbance of treatment groups normalized to the vehicle control.

[2] = test system: Balb/c mice; assay: Light model assay (light damage), eye drops, rows of photoreceptors; assay type: in vivo, mouse; details: 100 μM eye drops once daily; continuous light for 7 days; maximum effect
Excerpt: The light model assay is generally accepted as a model of age related macular degeneration (AMD). […] In particular, oxidative damage has been detected by immunohistochemistry, detecting the presence of oxidized and tyrosine-phosphorylated proteins as well as the upregulation of endogenous antioxidants such as thioredoxin and glutathione peroxidase.
The light model assay was used to further test the therapeutic potential of the compounds of the invention. Photoreceptors from albino animals are very sensitive to constant light, lacking the RPE pigment to protect them. […] To test the potential therapeutic efficacy, eye drops were formulated in 0.1% Myrj in 0.9% saline, applied once daily throughout the period of light exposure, and their effect assessed on the light-induced degeneration of photoreceptor cells morphologically and electrophysiologically, 10 days after the onset of the CL exposure.

[3] = test system: rd10 mouse; assay: Rd10 mouse model of RP, eye drops, rows of photoreceptors; assay type: in vivo; details: 100 μM eye drops once daily from postnatal day 14, assessed at postnatal day 25; P < 0.005; vehicle 2.3 ± 0.23
Excerpt: To test the potential therapeutic efficacy, eye drops were formulated in 0.1% Myrj in 0.9% saline, applied once daily starting at the day of eye opening (postnatal day 14), and their effect assessed on the degeneration of photoreceptor cells morphologically at postnatal day 25.

[4] = test system: rd1 mouse; assay: Rd1 mouse model of RP (retina organ culture), rows of photoreceptors; assay type: cell-based; details: 10 nM; equivalent of postnatal day 21; P = 0.04; rd1 vehicle 1.81 ± 0.09
Protocol: For the calcium-overload in vitro, the rd1 mouse was utilized (e.g., Farber et al., 1995). […] To test the potential therapeutic efficacy, compounds were added to the culture media starting the day after the start of the culture (equivalent to postnatal day 11) and replaced every 48 hours. Effects were assessed on the degeneration of photoreceptor cells morphologically at the equivalent of postnatal day 21.

Compound | loss in MTT signal [1] | LD Protection (# of rows) [2] | rd10 protection (# of rows) [3] | rd1 protection (# of rows) [4]
CNc1ccc2oc(C[C@H]3O[C@@]4(CC[C@H]3C)O[C@H]([C@H](C)C(=O)c3ccc[nH]3)[C@H](C)C[C@H]4C)nc2c1C(=O)O [Example A23187] | about 50% | – | – | –
CCN1C(=O)C(Cc2cccc(OC)c2OC(=O)NCCOCCO)(OC(=O)c2ccccc2)c2cc(Cl)ccc21 (stereo not drawn) [Example 12, 5-chloro-1-ethyl-3-(2-(((2-(2-hydroxyethoxy)ethyl)carbamoyl)oxy)-3-methoxybenzyl)-2-oxoindolin-3-yl benzoate] | – | (100 μM) 4.87 ± 0.22 (P < 0.01) # of rows | – | –
CCN1C(=O)C(O)(Cc2cccc3c2OCO3)c2cc(C)ccc21 (stereo not drawn) [Example 17, 3-(benzo[d][1,3]dioxol-4-ylmethyl)-1-ethyl-3-hydroxy-5-methylindolin-2-one] | – | (100 μM) 6.48 ± 0.13 (P < 0.001) # of rows | – | –
CCN1C(=O)C(Cc2cccc(OC)c2O)(OC(=O)N(C)C)c2cc(Cl)ccc21 (stereo not drawn) [Example 10, 5-chloro-1-ethyl-3-(2-hydroxy-3-methoxybenzyl)-2-oxoindolin-3-yl dimethylcarbamate] | – | (100 μM) 5.8 ± 0.34 (P < 0.001) # of rows | (100 μM) 2.8 ± 0.48 (P < 0.005) # of rows | (10 nM) 2.51 ± 0.25 (P = 0.04) # of rows
